This test relates to NLRP3. Description: IL-1β secretion assay in PMA-differentiated, LPS/nigericin-stimulated THP-1 cells (384-well, ELISA read-out). It is filed as cell-based, human. The method, then:
Compounds as provided herein were tested in the following assay. Cell culture medium employed contained RPMI 1640 medium (89%), FBS (10%), Pen/Strep (1%), and 2-mercaptoethanol (0.05 mM). Freezing medium was made up of 90% FBS and 10% DMSO. THP-1 cells were removed from the liquid nitrogen and placed into a 37° C. water bath to thaw, until signs of ice dissipated. The cells were then added to 9 mL of warm cell culture medium and centrifuged for 5 minutes at 1000 rpm. The supernatant was discarded, and the cells were resuspended in new cell culture medium. THP-1 cells were then split and cultured in the cell culture medium, being passaged every 2-3 days with the cell density will be maintained between 5×10^5 and 1.5×10^6 viable cells/mL.
To freeze, cells were resuspended with fresh freezing medium, adjusting the cell density to 5×10^6 cells/mL. The cell suspension was partitioned into 1 mL aliquots per vial, and the vials were transferred to a −80° C. freezer. After one day at −80° C., the cell vials were transferred to liquid nitrogen freezer for storage.
PMA was dissolved in DMSO to make a stock solution at 5 mg/mL and stored in 10 μl aliquots at −20° C. for single use. PMA is added to normal growth medium. LPS was diluted with 1 mL of water solution to provide a 1 mg/mL stock solution and stored in 15 μl aliquots at −20° C. for single use. Nigericin is diluted in ice cold 100% ethanol to 5 mg/mL (6.7 mM) and stored in 75 μL aliquots at −20° C. for single use. Serum-free media contains RPMI 1640 medium (99%), Pen/Strep (1%), and 2-mercaptoethanol (0.05 mM). The two control conditions used to qualify and normalize test compound dose-response curves were as follows: High Control=25 ng/mL LPS, 5 μM Nigericin, 0.5% DMSO, Low Control=25 ng/mL, LPS, 0.5% DMSO.
THP-1 cells were diluted to provide a suspension at a concentration of 1.0×10^6 cells/mL with the total volume of suspension required to enable the desired number of assay plates. The growth media was supplemented with PMA (5 ng/mL final concentration) and the cells were incubated at 37° C. under a humidified atmosphere of 5% CO2 for 40 h.
All media was carefully aspirated from each culture flask. The cells were washed carefully with 1×DPBS. The cells were then briefly digested with trypsin LE for 5 minutes at 23° C., and immediately resuspended in cell growth media. After resuspension, the cells were centrifuged at 1000 rpm for 3 minutes and the supernatant was discarded. The cells were resuspended in DPBS and once again centrifuged at 1000 rpm for 5 minutes. The supernatant was discarded and the cell pellet was resuspended in serum-free media supplemented with LPS (25 ng/mL final concentration) to enable the distribution of 30K THP-1 cells within 45 μL of media into each well of 384-well PDL-coated plates. The 384-well plates were then incubated at 37° C. under a humidified atmosphere of 5% CO2 for 2 h. Following this period, test compounds were dispensed by Tecan across the desired concentration range with all wells normalized to a final 0.5% DMSO concentration. The plates were then incubated at 37° C. under a humidified atmosphere of 5% CO2 for 1 h. Following this period, 5 μL of the […] was added to each of the appropriate wells and plates were centrifuged at 1000 rpm for 30 seconds. The plates were the immediately reintroduced to the incubator at 37° C. under a humidified atmosphere of 5% CO2 for 2 h. After this time, 35 μL/well of supernatant was collected and transferred into v-bottom plate and centrifuged at 1000 rpm for 1 minute. These supernatant aliquots were analyzed using an IL-Iβ detection kit as described below. If needed, the test samples could be snap frozen and stored at −80° C. until analyzed.
To prepare each ELISA plate, capture antibody (mAb Mt175) was diluted with PBS to a final concentration of 2 μg/mL and then 20 μL of this solution was added to each well of the ELISA plate. Each plate was allowed to incubate overnight at 4° C.
On the technique in general: An ELISA detects its analyte on a solid surface through an enzyme-linked reagent.

[1] abbreviates: Homo sapiens, THP-1, IL-1β secretion, PMA-differentiated THP-1 cells, LPS then nigericin stimulation, ELISA read at 450 nm, read-out: Activity.
Where [2] appears, read: IL-1β secretion, PMA-differentiated THP-1 cells, LPS then nigericin stimulation, ELISA read at 450 nm, read-out: Activity.
The mark [3] stands for this setting: Table 4, IL-1β secretion, LPS/nigericin-stimulated THP-1 cells, read-out: IC50.

Like-named read-outs stand apart in the source and are kept apart here. Where only a bound is given, the exact number is not on record here.

Consider `O=C(CN1CC2(CC2)c2cc([C@@]3(F)C[C@H]3F)ccc2C1=O)Nc1ncc(F)cn1` (single isomer, unassigned) [Example 253, 2-[6-[(1r,2s)-1,2-difluorocyclopropyl]-1-oxospiro[3H-isoquinoline-4,1′-cyclopropane]-2-yl]-N-(5-fluoropyrimidin-2-yl)acetamide], for which the IC50 reads like this: under setting [1], < 10 µM; (Homo sapiens, THP-1, Table 4, IL-1β secretion, LPS/nigericin-stimulated THP-1 cells, read-out: IC50) 0.597 µM.

Consider `O=C(CN1CC2(CC2)c2cc([C@@]3(F)C[C@H]3F)ccc2C1=O)Nc1ncc(F)cn1` (single isomer, unassigned) [Example 254, 2-[6-[(1r,2s)-1,2-difluorocyclopropyl]-1-oxospiro[3H-isoquinoline-4,1′-cyclopropane]-2-yl]-N-(5-fluoropyrimidin-2-yl)acetamide], for which the IC50 by setting is: under setting [2], < 10 µM; under setting [3], 0.434 µM.

For the compound `C[C@@H]1[C@H](F)[C@]12CN(CC(=O)Nc1ncc(F)cn1)C(=O)c1ccc(Br)cc12` (single isomer, unassigned) [Example 277, 2-[(2′s,3′s,4r)-6-bromo-2′-fluoro-3′-methyl-1-oxospiro[3H-isoquinoline-4,1′-cyclopropane]-2-yl]-N-(5-fluoropyrimidin-2-yl)acetamide], the IC50 runs as follows: under setting [1], < 10 µM; under setting [3], 0.021 µM.

As for `C[C@@H]1[C@H](F)[C@]12CN(CC(=O)Nc1ncc(F)cn1)C(=O)c1ccc(Br)cc12` (single isomer, unassigned) [Example 278, 2-[(2′s,3′s,4r)-6-bromo-2′-fluoro-3′-methyl-1-oxospiro[3H-isoquinoline-4,1′-cyclopropane]-2-yl]-N-(5-fluoropyrimidin-2-yl)acetamide], the IC50 reads like this: under setting [2], < 10 µM; under setting [3], 1.79 µM.

Take `C[C@H]1C[C@]12CN(CC(=O)Nc1ncc(F)cn1)C(=O)c1ccc(Br)cc12` (single isomer, unassigned) [Example 279, 2-[(2′s,4s)-6-bromo-2′-methyl-1-oxospiro[3H-isoquinoline-4,1′-cyclopropane]-2-yl]-N-(5-fluoropyrimidin-2-yl)acetamide]: the IC50 by setting is: under setting [1], > 15 µM; under setting [3], 22.4 µM.

Regarding `C[C@H]1C[C@]12CN(CC(=O)Nc1ncc(F)cn1)C(=O)c1ccc(Br)cc12` (single isomer, unassigned) [Example 280, 2-[(2′s,4s)-6-bromo-2′-methyl-1-oxospiro[3H-isoquinoline-4,1′-cyclopropane]-2-yl]-N-(5-fluoropyrimidin-2-yl)acetamide], the IC50 by setting is: under setting [2], < 10 µM; under setting [3], 2.37 µM.

As for `C[C@H]1C[C@@]12CN(CC(=O)Nc1ncc(F)cn1)C(=O)c1ccc(Br)cc12` (single isomer, unassigned) [Example 281, 2-[(2′s,4r)-6-bromo-2′-methyl-1-oxospiro[3H-isoquinoline-4,1′-cyclopropane]-2-yl]-N-(5-fluoropyrimidin-2-yl)acetamide], the IC50 runs as follows: under setting [1], < 10 µM; under setting [3], 0.108 µM.

On to `C[C@H]1C[C@@]12CN(CC(=O)Nc1ncc(F)cn1)C(=O)c1ccc(Br)cc12` (single isomer, unassigned) [Example 282, 2-[(2′s,4r)-6-bromo-2′-methyl-1-oxospiro[3H-isoquinoline-4,1′-cyclopropane]-2-yl]-N-(5-fluoropyrimidin-2-yl)acetamide], for which the IC50 under setting [2] is < 10 µM and the IC50 under setting [3] turned out to be 1.05 µM.

Consider `O=C(CN1C[C@@]2(C[C@@H]2Cl)c2cc(Br)ccc2C1=O)Nc1ncc(F)cn1` (single isomer, unassigned) [Example 283, 2-[(2′r,4s)-6-bromo-2′-chloro-1-oxospiro[3H-isoquinoline-4,1′-cyclopropane]-2-yl]-N-(5-fluoropyrimidin-2-yl)acetamide], for which the IC50 under setting [1] is < 10 µM and the IC50 under setting [3] was 0.101 µM.

For `O=C(CN1C[C@@]2(C[C@@H]2Cl)c2cc(Br)ccc2C1=O)Nc1ncc(F)cn1` (single isomer, unassigned) [Example 284, 2-[(2′r,4s)-6-bromo-2′-chloro-1-oxospiro[3H-isoquinoline-4,1′-cyclopropane]-2-yl]-N-(5-fluoropyrimidin-2-yl)acetamide], the IC50 runs as follows: under setting [2], < 10 µM; under setting [3], 0.05 µM.

Take `N#C[C@H]1C[C@@]12CN(CC(=O)Nc1ncc(F)cn1)C(=O)c1ccc(Br)cc12` (single isomer, unassigned) [Example 286, 2-[(2′s,4r)-6-bromo-2′-cyano-1-oxospiro[3H-isoquinoline-4,1′-cyclopropane]-2-yl]-N-(5-fluoropyrimidin-2-yl)acetamide]: the IC50 under setting [1] was < 10 µM and the IC50 under setting [3] came to 1.95 µM.

As for `N#C[C@H]1C[C@@]12CN(CC(=O)Nc1ncc(F)cn1)C(=O)c1ccc(Br)cc12` (single isomer, unassigned) [Example 287, 2-[(2′s,4r)-6-bromo-2′-cyano-1-oxospiro[3H-isoquinoline-4,1′-cyclopropane]-2-yl]-N-(5-fluoropyrimidin-2-yl)acetamide], the IC50 runs as follows: under setting [2], < 10 µM; under setting [3], 0.251 µM.

Take `O=C(CN1CC2(CC2(F)F)c2c(ccc(Br)c2F)C1=O)Nc1ncc(F)cn1` (single isomer, unassigned) [Example 288, N-(5-fluoropyrimidin-2-yl)-2-[6-bromo-1′,1′,5-trifluoro-1-oxospiro[3H-isoquinoline-4,2′-cyclopropane]-2-yl]acetamide]: the IC50 is 10 to 15 µM under setting [1] and 15.4 µM under setting [3].

For `O=C(CN1CC2(CC2(F)F)c2c(ccc(Br)c2F)C1=O)Nc1ncc(F)cn1` (single isomer, unassigned) [Example 289, N-(5-fluoropyrimidin-2-yl)-2-[6-bromo-1′,1′,5-trifluoro-1-oxospiro[3H-isoquinoline-4,2′-cyclopropane]-2-yl]acetamide], the IC50 reads like this: under setting [2], < 10 µM; under setting [3], 0.027 µM.

As to `O=C(CN1CC2(CC2(F)F)c2cc(Br)ccc2C1=O)Nc1ncc(F)cn1` (single isomer, unassigned) [Example 290, 2-[6-bromo-1′,1′-difluoro-1-oxospiro[3H-isoquinoline-4,2′-cyclopropane]-2-yl]-N-(5-fluoropyrimidin-2-yl)acetamide], the IC50 by setting is: under setting [1], < 10 µM; under setting [3], 3.73 µM.

In the case of `O=C(CN1CC2(CC2(F)F)c2cc(Br)ccc2C1=O)Nc1ncc(F)cn1` (single isomer, unassigned) [Example 291, 2-[6-bromo-1′,1′-difluoro-1-oxospiro[3H-isoquinoline-4,2′-cyclopropane]-2-yl]-N-(5-fluoropyrimidin-2-yl)acetamide], the IC50 under setting [2] is < 10 µM and the IC50 under setting [3] came to 0.037 µM.

With `O=C(CN1CC(CF)c2cc(Br)ccc2C1=O)Nc1ncc(F)cn1` (single isomer, unassigned) [Example 292, 2-[6-bromo-4-(fluoromethyl)-1-oxo-3,4-dihydroisoquinolin-2-yl]-N-(5-fluoropyrimidin-2-yl)acetamide], the IC50 under setting [1] was < 10 µM and the IC50 under setting [3] came out at 3.94 µM.

As to `O=C(CN1CC(CF)c2cc(Br)ccc2C1=O)Nc1ncc(F)cn1` (single isomer, unassigned) [Example 293, 2-[6-bromo-4-(fluoromethyl)-1-oxo-3,4-dihydroisoquinolin-2-yl]-N-(5-fluoropyrimidin-2-yl)acetamide], the IC50 under setting [2] was < 10 µM and the IC50 under setting [3] amounted to 0.134 µM.

Values taken from patent US20230416205A1, “COMPOUNDS, COMPOSITIONS, AND METHODS” (Denali Therapeutics Inc, priority 2020, published 2023).
